Measurements published in article PMC7238232, “Acamprosate Is a Substrate of the Human Organic Anion Transporter (OAT) 1 without OAT3 Inhibitory Properties: Implications for Renal Acamprosate Secretion and Drug–Drug Interactions” (Pharmaceutics, 2020).

Tested on: HEK293-Flp-In mock cells
Test: Control uptake studies in HEK293-Flp-In mock cells
Experimental: All uptake experiments were performed on 24- or 96-well plates. Before the experiment initiation, the cells were incubated with either 500 or 200 µL∙well^−1 prewarmed buffer for 10 min at 37 °C in a microplate incubator (VWR International AB, Stockholm, Sweden), without shaking. […] The experiment was stopped by adding 200 µL∙well^−1 of ice-cold buffer and subsequent rinse three times with the same amount of buffer. […] A total of 50 µL of cell lysate from each well was transferred to 96-well Luma plates bottom coated with dry scintillant. Then, 2∙20 µL of each donor and three 50 µL blank samples were applied on the same plate. The dry plates were covered with transparent seals and analyzed using a TopCount NXT Microplate Scintillation and Luminescence Counter (Perkin Elmer, Waltham, MA, USA). The remaining 20 µL cell lysate was neutralized with 20 µL 1M HCl∙well^−1, samples were mixed thoroughly and the total protein content in all the wells was measured using a BCA protein assay kit, microplate method, and a Tecan Safire II fluorometer (Tecan Austria GmbH, Grödig, Austria). […] The total protein content was measured by using a BCA protein assay kit and a FLUOStar Omega fluorescence microplate reader (BMG Labtech, Ortenberg, Germany). The protein assay for the OAT3 and mock cell lines was performed in four independent wells of each cell line, seeded and treated in the same manner as the cells used in the uptake assay. For all the OAT1, OAT3, and mock isotope uptake studies, the radiolabelled tracer accumulation (pmol) in each well was calculated by first determining the activity of the isotope (DPM∙pmol^−1) from the radioactivity (DPM) of the donor sample divided by the theoretical isotope concentration (pmol), then dividing the total radioactivity in the well (DPM) to the specific activity of the isotope (DPM∙pmol^−1).

SMILES: CC(=O)NCCCS(=O)(=O)O [acamprosate, acetylhomotaurinate]
- effect on uptake of [3H]-E3S in mock cells (0.02 µM [3H]-E3S, 200 µM E3S, 300 µM or 0.2–1022 µM probenecid, 10,000 µM acamprosate, Lab. 2): did not affect
- effect on uptake of [14C]-PAH in mock cells (9.5 µM [14C]-PAH, 200 µM PAH, 300 µM or 0.02–1022 µM probenecid, acamprosate, Lab. 1): did not inhibit
- saturability of dose-dependent substrate uptake in mock cells (same substrate concentrations as in transfected cells, acamprosate 0.33–3300 µM): not saturable
